The source of these data is ChEMBL document CHEMBL1743141, “Membrane transporters in drug development” (Nat Rev Drug Discov, 2010).

Peptide text beside a SMILES is read from it.

Holding throughout (type): ADME
Series [1] has as its target T1, Solute carrier family 15 member 1 (Homo sapiens, UniProt P46059).
T1 sequence (P46059 whole entry): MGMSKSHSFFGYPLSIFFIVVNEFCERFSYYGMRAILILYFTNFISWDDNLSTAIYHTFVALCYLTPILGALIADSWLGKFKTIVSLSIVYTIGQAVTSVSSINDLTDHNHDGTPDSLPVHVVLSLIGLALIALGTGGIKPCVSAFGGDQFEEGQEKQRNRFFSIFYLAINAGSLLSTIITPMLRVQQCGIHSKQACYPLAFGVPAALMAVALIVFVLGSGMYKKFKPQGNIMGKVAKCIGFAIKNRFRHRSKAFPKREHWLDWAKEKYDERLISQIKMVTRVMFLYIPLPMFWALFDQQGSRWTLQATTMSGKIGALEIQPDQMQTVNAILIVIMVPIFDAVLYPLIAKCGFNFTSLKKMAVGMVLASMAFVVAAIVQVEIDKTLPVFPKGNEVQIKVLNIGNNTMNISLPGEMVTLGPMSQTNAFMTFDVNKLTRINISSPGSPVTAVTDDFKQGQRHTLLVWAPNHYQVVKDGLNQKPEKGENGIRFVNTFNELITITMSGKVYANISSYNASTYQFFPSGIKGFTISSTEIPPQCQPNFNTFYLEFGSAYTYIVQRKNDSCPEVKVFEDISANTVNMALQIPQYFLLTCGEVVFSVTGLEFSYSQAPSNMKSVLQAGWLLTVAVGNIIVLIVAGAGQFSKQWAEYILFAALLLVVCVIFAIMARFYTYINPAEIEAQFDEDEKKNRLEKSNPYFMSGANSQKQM
Description: Inhibitors of transporters of clinical importance in the absorption and disposition of drugs, PEPT1.

For series [2], the target named is T2, Organic anion transporter 3 (Homo sapiens, UniProt Q8TCC7).
T2 sequence (Q8TCC7 whole entry): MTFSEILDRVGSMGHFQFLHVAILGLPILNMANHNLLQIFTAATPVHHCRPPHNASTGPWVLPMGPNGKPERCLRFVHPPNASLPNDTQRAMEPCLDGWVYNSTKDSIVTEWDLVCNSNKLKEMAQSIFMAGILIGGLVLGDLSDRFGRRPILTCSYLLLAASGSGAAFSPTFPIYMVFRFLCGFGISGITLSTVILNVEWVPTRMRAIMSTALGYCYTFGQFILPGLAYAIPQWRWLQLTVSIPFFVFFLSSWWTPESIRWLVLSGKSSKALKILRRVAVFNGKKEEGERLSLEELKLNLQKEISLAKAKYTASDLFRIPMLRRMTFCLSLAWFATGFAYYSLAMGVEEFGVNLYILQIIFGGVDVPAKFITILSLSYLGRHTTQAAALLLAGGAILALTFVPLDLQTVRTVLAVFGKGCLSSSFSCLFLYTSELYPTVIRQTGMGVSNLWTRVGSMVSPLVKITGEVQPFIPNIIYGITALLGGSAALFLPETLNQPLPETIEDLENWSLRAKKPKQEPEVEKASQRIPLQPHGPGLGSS
Nature of the series: Inhibitors of transporters of clinical importance in the absorption and disposition of drugs, OAT3.

Series [3] addresses T3, Solute carrier family 22 member 6 (Homo sapiens, UniProt Q4U2R8).
T3 sequence (Q4U2R8 whole entry): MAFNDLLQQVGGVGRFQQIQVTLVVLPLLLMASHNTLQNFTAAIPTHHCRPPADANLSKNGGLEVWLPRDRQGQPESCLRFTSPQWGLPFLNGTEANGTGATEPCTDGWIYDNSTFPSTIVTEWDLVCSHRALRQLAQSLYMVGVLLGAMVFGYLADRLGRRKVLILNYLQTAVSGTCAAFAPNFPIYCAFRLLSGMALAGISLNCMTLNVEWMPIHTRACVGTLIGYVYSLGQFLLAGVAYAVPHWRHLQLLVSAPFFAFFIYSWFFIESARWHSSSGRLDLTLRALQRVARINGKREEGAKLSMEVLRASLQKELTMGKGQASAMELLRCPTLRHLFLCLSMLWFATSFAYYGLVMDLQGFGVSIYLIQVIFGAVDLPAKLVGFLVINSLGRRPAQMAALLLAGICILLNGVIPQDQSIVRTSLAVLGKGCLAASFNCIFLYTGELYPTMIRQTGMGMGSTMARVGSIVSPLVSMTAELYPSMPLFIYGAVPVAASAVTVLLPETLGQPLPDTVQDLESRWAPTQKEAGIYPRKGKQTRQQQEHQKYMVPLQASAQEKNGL
Description: Inhibitors of transporters of clinical importance in the absorption and disposition of drugs, OAT1.

Series [4] has as its target T4, Solute carrier organic anion transporter family member 1B3 (Homo sapiens, UniProt Q9NPD5).
T4 sequence (Q9NPD5 whole entry): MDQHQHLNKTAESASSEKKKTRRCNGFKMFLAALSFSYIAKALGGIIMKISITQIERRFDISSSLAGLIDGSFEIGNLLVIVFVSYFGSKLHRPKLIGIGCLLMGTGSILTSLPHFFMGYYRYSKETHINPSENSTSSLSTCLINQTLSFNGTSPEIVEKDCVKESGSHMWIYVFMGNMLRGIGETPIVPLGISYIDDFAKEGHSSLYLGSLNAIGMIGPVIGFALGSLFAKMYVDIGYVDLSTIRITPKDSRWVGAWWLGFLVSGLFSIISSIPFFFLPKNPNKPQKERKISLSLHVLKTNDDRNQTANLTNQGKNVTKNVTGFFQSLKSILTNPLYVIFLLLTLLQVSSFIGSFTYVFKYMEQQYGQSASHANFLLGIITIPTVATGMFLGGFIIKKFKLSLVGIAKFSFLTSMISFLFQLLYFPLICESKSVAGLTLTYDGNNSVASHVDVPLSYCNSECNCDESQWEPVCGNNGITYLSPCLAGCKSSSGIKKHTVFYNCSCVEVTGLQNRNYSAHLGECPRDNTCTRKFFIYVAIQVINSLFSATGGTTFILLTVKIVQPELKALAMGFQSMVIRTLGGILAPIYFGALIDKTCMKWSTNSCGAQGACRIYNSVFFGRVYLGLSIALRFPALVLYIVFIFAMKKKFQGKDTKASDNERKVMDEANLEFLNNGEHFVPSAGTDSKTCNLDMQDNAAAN
Nature of the series: Inhibitors of transporters of clinical importance in the absorption and disposition of drugs, OATP1B3.

For series [5], the target named is T5, Solute carrier organic anion transporter family member 2B1 (Homo sapiens, UniProt O94956).
T5 sequence (O94956 whole entry): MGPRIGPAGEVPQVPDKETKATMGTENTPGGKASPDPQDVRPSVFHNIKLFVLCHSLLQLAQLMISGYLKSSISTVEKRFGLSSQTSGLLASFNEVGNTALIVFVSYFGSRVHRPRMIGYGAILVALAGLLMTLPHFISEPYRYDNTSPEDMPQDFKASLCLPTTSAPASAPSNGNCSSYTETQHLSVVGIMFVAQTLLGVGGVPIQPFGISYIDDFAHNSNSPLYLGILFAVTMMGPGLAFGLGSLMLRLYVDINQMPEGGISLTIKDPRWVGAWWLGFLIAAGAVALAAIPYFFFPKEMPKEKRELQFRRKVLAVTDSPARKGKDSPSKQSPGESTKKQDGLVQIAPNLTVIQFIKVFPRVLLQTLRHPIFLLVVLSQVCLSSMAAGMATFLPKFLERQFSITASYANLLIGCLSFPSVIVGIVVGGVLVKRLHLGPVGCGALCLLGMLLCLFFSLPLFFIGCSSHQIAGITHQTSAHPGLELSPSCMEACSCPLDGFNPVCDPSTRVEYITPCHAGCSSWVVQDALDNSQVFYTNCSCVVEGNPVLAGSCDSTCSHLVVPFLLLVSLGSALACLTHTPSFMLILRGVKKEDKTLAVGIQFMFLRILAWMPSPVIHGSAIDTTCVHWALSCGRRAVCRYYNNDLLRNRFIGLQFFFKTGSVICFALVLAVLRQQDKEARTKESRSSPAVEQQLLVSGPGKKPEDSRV
Nature of the series: Inhibitors of transporters of clinical importance in the absorption and disposition of drugs, OATP2B1.

For series [6], the target named is T6, Solute carrier organic anion transporter family member 1B1 (Homo sapiens, UniProt Q9Y6L6).
T6 sequence (Q9Y6L6 whole entry): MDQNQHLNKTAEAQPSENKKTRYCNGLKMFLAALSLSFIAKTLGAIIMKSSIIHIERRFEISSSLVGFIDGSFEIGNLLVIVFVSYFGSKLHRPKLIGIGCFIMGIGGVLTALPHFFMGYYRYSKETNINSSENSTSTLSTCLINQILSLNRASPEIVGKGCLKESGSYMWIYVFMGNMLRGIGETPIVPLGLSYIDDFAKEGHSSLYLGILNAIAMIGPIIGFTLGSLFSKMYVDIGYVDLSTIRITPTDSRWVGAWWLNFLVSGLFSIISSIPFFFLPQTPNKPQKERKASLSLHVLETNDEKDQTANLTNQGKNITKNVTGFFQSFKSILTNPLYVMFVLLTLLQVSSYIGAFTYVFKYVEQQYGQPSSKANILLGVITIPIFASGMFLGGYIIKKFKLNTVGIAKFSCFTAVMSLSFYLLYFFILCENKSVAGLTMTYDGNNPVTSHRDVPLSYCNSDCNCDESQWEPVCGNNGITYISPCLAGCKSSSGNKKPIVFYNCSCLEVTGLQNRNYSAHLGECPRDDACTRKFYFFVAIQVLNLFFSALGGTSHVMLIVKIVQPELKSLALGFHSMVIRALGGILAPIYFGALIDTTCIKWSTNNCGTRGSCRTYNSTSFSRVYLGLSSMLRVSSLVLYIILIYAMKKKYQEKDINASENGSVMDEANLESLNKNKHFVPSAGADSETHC
Nature of the series: Inhibitors of transporters of clinical importance in the absorption and disposition of drugs, OATP1B1.

Series [7] addresses Bile salt export pump (Homo sapiens, UniProt O95342). Nature of the series: Inhibitors of transporters of clinical importance in the absorption and disposition of drugs, BSEP.
In series [8] the target is T7, Solute carrier organic anion transporter family member 1A2 (Homo sapiens, UniProt P46721).
T7 sequence (P46721 whole entry): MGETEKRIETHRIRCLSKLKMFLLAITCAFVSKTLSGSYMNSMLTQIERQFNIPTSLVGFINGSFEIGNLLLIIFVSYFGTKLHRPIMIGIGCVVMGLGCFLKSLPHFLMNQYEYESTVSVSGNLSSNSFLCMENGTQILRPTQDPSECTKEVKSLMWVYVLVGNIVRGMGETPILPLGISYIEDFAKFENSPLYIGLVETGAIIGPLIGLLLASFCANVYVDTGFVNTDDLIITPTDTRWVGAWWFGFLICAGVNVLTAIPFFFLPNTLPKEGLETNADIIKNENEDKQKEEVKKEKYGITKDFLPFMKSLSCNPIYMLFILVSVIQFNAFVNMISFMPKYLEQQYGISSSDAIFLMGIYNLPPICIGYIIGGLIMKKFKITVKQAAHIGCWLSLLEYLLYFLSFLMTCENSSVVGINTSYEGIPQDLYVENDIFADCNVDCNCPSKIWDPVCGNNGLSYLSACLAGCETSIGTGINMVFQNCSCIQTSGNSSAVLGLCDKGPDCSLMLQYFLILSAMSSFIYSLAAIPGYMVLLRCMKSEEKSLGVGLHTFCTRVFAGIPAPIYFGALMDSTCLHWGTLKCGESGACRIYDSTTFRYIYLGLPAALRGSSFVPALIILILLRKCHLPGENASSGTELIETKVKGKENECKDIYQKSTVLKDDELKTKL
Nature of the series: Inhibitors of transporters of clinical importance in the absorption and disposition of drugs, OATP1A2.

Chain of Bile salt export pump (O95342 whole entry): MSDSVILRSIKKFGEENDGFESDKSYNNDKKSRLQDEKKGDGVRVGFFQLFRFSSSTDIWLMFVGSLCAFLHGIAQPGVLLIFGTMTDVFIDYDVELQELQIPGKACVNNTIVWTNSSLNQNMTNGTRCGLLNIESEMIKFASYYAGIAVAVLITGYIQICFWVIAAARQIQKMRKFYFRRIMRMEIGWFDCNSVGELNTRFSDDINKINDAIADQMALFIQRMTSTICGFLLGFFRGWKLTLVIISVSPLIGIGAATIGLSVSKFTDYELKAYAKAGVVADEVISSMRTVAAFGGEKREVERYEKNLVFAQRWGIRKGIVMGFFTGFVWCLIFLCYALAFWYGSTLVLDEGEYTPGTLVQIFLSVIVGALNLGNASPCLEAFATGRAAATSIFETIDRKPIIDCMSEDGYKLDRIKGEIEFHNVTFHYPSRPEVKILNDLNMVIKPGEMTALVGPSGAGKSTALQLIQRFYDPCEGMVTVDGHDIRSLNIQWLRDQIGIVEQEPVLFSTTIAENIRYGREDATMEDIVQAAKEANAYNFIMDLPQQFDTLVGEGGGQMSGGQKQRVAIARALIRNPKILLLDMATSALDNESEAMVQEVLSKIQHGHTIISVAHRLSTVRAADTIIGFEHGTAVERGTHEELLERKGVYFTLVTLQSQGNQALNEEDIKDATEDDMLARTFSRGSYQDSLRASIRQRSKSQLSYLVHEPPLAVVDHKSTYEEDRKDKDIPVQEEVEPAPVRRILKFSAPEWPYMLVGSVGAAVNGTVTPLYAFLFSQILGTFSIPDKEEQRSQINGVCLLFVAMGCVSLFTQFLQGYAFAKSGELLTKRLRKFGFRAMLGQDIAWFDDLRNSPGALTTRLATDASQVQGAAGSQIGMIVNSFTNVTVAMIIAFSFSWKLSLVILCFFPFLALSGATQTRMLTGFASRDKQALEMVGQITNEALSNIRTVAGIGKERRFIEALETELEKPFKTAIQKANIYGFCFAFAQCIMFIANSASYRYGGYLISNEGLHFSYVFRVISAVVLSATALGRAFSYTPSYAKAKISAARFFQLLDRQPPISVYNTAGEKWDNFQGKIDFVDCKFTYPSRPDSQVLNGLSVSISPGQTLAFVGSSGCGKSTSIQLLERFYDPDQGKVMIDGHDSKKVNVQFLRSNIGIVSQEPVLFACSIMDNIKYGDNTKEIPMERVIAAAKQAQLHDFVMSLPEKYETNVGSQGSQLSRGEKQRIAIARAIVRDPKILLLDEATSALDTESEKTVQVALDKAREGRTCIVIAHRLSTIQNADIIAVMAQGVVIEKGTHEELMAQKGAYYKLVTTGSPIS

Consider `NCC(=O)N1CCC[C@H]1C(=O)O` [GLYCYL PROLINE] (H-Gly-Pro-OH), for which the Activity entry in series [1] is recorded as “transporter inhibitor”.
As for `CO[C@@H]1[C@@H](OC(N)=O)[C@@H](O)[C@H](Oc2ccc3c(O)c(NC(=O)c4ccc(O)c(CC=C(C)C)c4)c(=O)oc3c2C)OC1(C)C` [NOVOBIOCIN], the Activity result in series [2] and in series [3] was “transporter inhibitor” throughout.
Regarding `CO[C@H]1/C=C/O[C@@]2(C)Oc3c(C)c(O)c4c(O)c(c(/C=N/N5CCN(C)CC5)c(O)c4c3C2=O)NC(=O)/C(C)=C\C=C\[C@H](C)[C@H](O)[C@@H](C)[C@@H](O)[C@@H](C)[C@H](OC(C)=O)[C@@H]1C` [RIFAMPIN], the Activity entry in series [4], in series [5], in series [6], in series [7] and in series [8] was “transporter inhibitor” in each case.
